From EP2451450B1, “Inhibitors of proline racemase enzymes for the treatment of Trypanosoma spp infections” (Institut Pasteur, priority 2009, dated 2011)
Like-named read-outs stand apart in the source and are kept apart here.

Columns and labels:
[1] = target: T1, TcPRAC (Trypanosoma cruzi, UniProt Q4DA80); test: L-proline racemization assay, formed D-proline determined by DAAOx test; format: biochemical
T1 construct: implied only by nickel IMAC purification; made in house; host or cells: E. coli BL21 (DE3)
Method: (§1) Briefly, classical assays of Proline racemization induced by TcPRAC were performed in tubes in a final volume of 1.5 ml and optical rotations measured in a polarimeter 241MC (Perkin Elmer). Parallel assays of Proline racemization were transposed into microplates in a final volume of 100 µl, as follows: serial dilutions of L- Proline ranging from 40 mM to 2.5 mM were prepared in 0.2 M sodium acetate pH 6.0 containing 0.25 mM rTcPRAC and loaded into microplate wells in the presence or in the absence of 0 - 20 µM pyrrole-2 carboxylic acid (PYC) or of similar dilutions of unknown potential inhibitors. Specific control wells were included omitting the TcPRAC and/or the PYC.
Microplates were incubated for 30 minutes at 37° C. Enzyme activity was then inactivated by heating the plate for 15 seconds in a microwave oven at 900 watts after shifting the pH of wells to 8.3 by addition of 6.8 µl of 0.235 M sodium Pyrophosphate. 50 µl of each well were used to test the presence of D-Proline using the DAAOx (D-amino acid oxidase) test described below. L- amino acids may react at very low rate with DAAOx. For instance, DAAOx reacts with L-Proline 300 times slower than D-Proline. Consequently, when assessing amino acid racemization products, standards should consist of serial dilution of equimolar mixtures of specific D- and L-amino acids ranging from 0 to 20 mM (10 mM final) to take into account any interference of possible reactivity with DAAOx of the L- form of amino acids present in the samples.
Solution A consisting of 0.2 M sodium acetate/0.016 M sodium pyrophosphate (Pop) buffer, pH 8.3 was used to prepare the enzyme stock solutions conserved in 50% glycerol, namely: 50 U/ml D-amino acid oxidase from pig kidney (DAAOx, Sigma) and 5000 U/ml Horse Raddish Peroxydase (HRP, Sigma). Stock solutions of L- proline (1M), D- proline (1M) and Pyrrole-2-carboxylic acid (10 mM) (PYC, Sigma) are also prepared in solution A. 10^-1 M FAD (Sigma) stock was prepared in water. Solution B consists in adding to solution A the following reagents at a final concentration in the assay of 1 U/ml for DAAOx, 0.5 mg/ml orthophenylenediamine (OPD, Sigma), 37.5 U/ml HRP and FAD (1.5x10^-5 M FAD). The test is run in 96 wells micro plates (Nunc, Denmark). […] OD 490nm - 650nm is obtained with a microtiter plate reader (Molecular Devices), and compared to those obtained with blank control wells.
The values presented in Table 2A correspond to racemization reactions performed in the absence or in the presence of 10 µM concentration of the different ligands. […] Briefly, 22.4 mg/ml of active TcPRAC was used in the racemization assays of 10 mM L-proline substrate and the concentration of formed D-proline was determined by the DAAOx test, as described in the Material and Methods. […]

[2] = target: T1, TcPRAC; test: L-proline racemization assay by polarimetry; format: biochemical; conditions: ligand 10.0 µM; L-Proline 20 mM, 30 minutes 37°C, 0.25 µM TcPRAC
Method: as §1
The values presented in Table 2B correspond to racemization reactions performed in the absence or in the presence of the different inhibitors. Note that 6 µM PYC is necessary to inhibit 100 % of the racemization of 10-20 mM L-proline. Briefly, L-Proline (20 mM) were incubated for 30 minutes at 37°C in test tubes with or without 0.25 µM TcPRAC in 0.2 M sodium acetate pH 6. Reactions were stopped by heating at 65° C for 10 minutes. Reaction volumes were analyzed for D-Proline formation, by measuring optical rotations in a polarimeter (365nm).

[3] = system: T. cruzi; test: Capture ELISA of Vero cultures infected 17h with or without inhibitor; format: cell-based, Trypanosoma cruzi; conditions: 17h at 37°C, 10:1 parasite/cell ratio; 0-30 mM OxoPA, Br-OxoPA or 10-1000 µM PYC in DMSO; Fig. 9
Method: Flat-bottomed microtiter plates (Nunc, Denmark) were coated overnight at 4°C with rabbit anti-T. cruzi polyclonal antibodies and further blocked for 4 h at room temperature (RT) with 1% BSA, 0.05% Tween 20 in PBS. After washings, lysate samples from infected or control Vero cultures, or from T. cruzi, were then added and incubated at 4°C for 18h. Plates were washed with PBS-Tween and incubated for 2h at RT with polyclonal mouse anti-T. cruzi chronic serum, washed again and incubated for 1 h at RT with HRP-secondary antibodies. […] Optical densities were determined in a spectrophotometer at 450 nm and 650 nm and analyzed using Softmax Pro software.
To confirm the effect of the inhibitors in the initial steps of the host-parasite interaction, cultures were infected for 17h at 37°C at a 10:1 parasite/cell ratio with or without increasing doses of freshly prepared dilutions (0-30 mM) of OxoPA, Br-OxoPA (15), or (10-1000 µM) of PYC, previously dissolved in DMSO and further analyzed by capture ELISA (see methods and Fig. 9). […] Three ongoing studies were performed to determine whether TcPRAC inhibition by the new compounds affects parasite intracellular fate. To do this, host cells were infected for 17 hours then washed and different ligand concentrations (5 mM, 10 mM, 30, 100 mM) were added to the medium. The degree of infection was determined over 48 hours by capture ELISA. The number of parasites per well decreased in a dose-dependent manner (Fig. 7). These experiments indicate that TcPRAC inhibition by OxoPA and Br-OxoPA affects both cellular infection by T. cruzi and parasite development in tissues.

[4] = system: T.cruzi CL Brener (clone F11-F5); conditions: cited from earlier work; for Mean number of parasites/ cell / % Infected cells / Endocytic index: from previous work; for Endocytic index (EI): Table 5, same PYC data as Table 3A
[5] = target: recombinant TvPRAC; conditions: 5 µM PYC, 20-160 mM L-proline; Chamond et al 2009; cited from earlier work
[6] = target: T1, TcPRAC; conditions: cited from earlier work
[7] = target: CsPRAC; conditions: value given for comparison; cited from earlier work
[8] = target: T1, TcPRAC; format: biochemical; conditions: in words; for inhibition of TcPRAC activity: Table 1
Method: Optimum Proline racemization conditions for TcPRAC were determined using 10-20 mM L-Proline in 0.2 M NaOAc, as a function of pH, as described [24].
Briefly, classical assays of Proline racemization induced by TcPRAC were performed in tubes in a final volume of 1.5 ml and optical rotations measured in a polarimeter 241MC (Perkin Elmer). […] Specific control wells were included omitting the TcPRAC and/or the PYC.
Microplates were incubated for 30 minutes at 37° C. Enzyme activity was then inactivated by heating the plate for 15 seconds in a microwave oven at 900 watts after shifting the pH of wells to 8.3 by addition of 6.8 µl of 0.235 M sodium Pyrophosphate. 50 µl of each well were used to test the presence of D-Proline using the DAAOx (D-amino acid oxidase) test described below [25]. L- amino acids may react at very low rate with DAAOx. For instance, DAAOx reacts with L-Proline 300 times slower than D-Proline. Consequently, when assessing amino acid racemization products, standards should consist of serial dilution of equimolar mixtures of specific D- and L-amino acids ranging from 0 to 20 mM (10 mM final) to take into account any interference of possible reactivity with DAAOx of the L- form of amino acids present in the samples.
Solution A consisting of 0.2 M sodium acetate/0.016 M sodium pyrophosphate (Pop) buffer, pH 8.3 was used to prepare the enzyme stock solutions conserved in 50% glycerol, namely: 50 U/ml D-amino acid oxidase from pig kidney (DAAOx, Sigma) and 5000 U/ml Horse Raddish Peroxydase (HRP, Sigma). Stock solutions of L- proline (1M), D- proline (1M) and Pyrrole-2-carboxylic acid (10 mM) (PYC, Sigma) are also prepared in solution A. 10^-1 M FAD (Sigma) stock was prepared in water. Solution B consists in adding to solution A the following reagents at a final concentration in the assay of 1 U/ml for DAAOx, 0.5 mg/ml orthophenylenediamine (OPD, Sigma), 37.5 U/ml HRP and FAD (1.5x10^-5 M FAD). […] OD 490nm - 650nm is obtained with a microtiter plate reader (Molecular Devices), and compared to those obtained with blank control wells. […]

T1 sequence (Q4DA80 32-423): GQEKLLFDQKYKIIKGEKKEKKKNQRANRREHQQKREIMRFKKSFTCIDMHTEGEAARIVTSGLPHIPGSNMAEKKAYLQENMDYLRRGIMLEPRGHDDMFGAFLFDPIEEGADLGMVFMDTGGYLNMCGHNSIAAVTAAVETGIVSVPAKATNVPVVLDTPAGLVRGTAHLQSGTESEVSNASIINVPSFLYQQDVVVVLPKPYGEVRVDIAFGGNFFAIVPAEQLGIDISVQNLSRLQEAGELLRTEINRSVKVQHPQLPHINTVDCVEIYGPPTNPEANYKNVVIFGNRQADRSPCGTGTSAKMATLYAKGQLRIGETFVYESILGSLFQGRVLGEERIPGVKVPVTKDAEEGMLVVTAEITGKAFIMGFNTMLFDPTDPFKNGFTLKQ

O=C(O)c1ccc[nH]1 [PYC, pyrrole-2-carboxylic acid]
IC50 [1]: ~10 µM
Formed D-Proline ([1]; ligand 10 µM, 10 mM L-proline, 22.4 mg/ml TcPRAC, 5.0mM without ligand): 2.4 mM (IC50)
Racemization Inhibition [2]: 56.9%
inhibition of cellular infection [3]: no particular differences were observed
Mean number of parasites/ cell ([4]; 10 µM, 2 at 0): 1,7
% Infected cells ([4]; 10 µM, 90,0 at 0): 75,0%
Endocytic index ([4]; 10 µM): 44
% Infected cells ([4]; 100 µM): 45,0%
Endocytic index ([4]; 100 µM): 30
Mean number of parasites/ cell ([4]; 100 µM): 1,5
% Infected cells ([4]; 1000 µM): 25,0%
Endocytic index ([4]; 1000 µM): 25
Mean number of parasites/ cell ([4]; 1000 µM): 1,0
Endocytic index (EI) ([4]; Inhibitor concentration 10): 44
Endocytic index (EI) ([4]; Inhibitor concentration 100): 30
Endocytic index (EI) ([4]; Inhibitor concentration 1000): 25
Ki [5]: 20 µM
PYC necessary to inhibit 100 % of the racemization of 10-20 mM L-proline ([6]; reference [15]): 6 µM
affinity for the TcPRAC catalytic pocket ([6]; reference [15]): 6 µM
Ki ([6]; value given for comparison): 6.7 µM
Ki [7]: 18 µM

O=C(O)c1n[nH]cc1Br [Pyrazole 4-bromo 5-carboxylic, 4-bromo-1H-pyrazole-3-carboxylic acid]
inhibition of TcPRAC activity [8]: weak inhibitions

O=C(O)c1n[nH]cc1Cl [Pyrazole 4-chloro 5-carboxylic, 4-chloro-1H-pyrazole-3-carboxylic acid]
inhibition of TcPRAC activity [8]: weak inhibitions

O=C(O)c1cc[nH]n1 [Pyrazole 5-carboxylic, 1H-pyrazole-3-carboxylic acid]
activity with PRAC (Figure 1 compounds) [8]: very weakly active
